Test results published in paper PMC12197642 (Viruses, 2025).

Key:
FMDV 2C helicase = FMDV 2C helicase (Foot-and-mouth disease virus serotype O, UniProt P03305); format: biochemical
in vitro = details: hamster
[1] = test system: FMDV serotype O strain O/China; format: cell-based, foot-and-mouth disease virus (FMDV)
[2] = test system: FMDV serotype O strain O/China; assay: microbe, parasite or virus in culture; format: cell-based, foot-and-mouth disease virus (FMDV)
[3] = test system: FMDV serotype O strain O/China; format: cell-based, foot-and-mouth disease virus (FMDV); remark: listed apart in the source
picornaviral 2C = details: cited from earlier work
[4] = Foot-and-mouth disease virus, BHK-21, read-out: reduction of viral plaque formation (inhibitory efficacy)

Chain of FMDV 2C helicase (P03305 1108-1425 limits assumed): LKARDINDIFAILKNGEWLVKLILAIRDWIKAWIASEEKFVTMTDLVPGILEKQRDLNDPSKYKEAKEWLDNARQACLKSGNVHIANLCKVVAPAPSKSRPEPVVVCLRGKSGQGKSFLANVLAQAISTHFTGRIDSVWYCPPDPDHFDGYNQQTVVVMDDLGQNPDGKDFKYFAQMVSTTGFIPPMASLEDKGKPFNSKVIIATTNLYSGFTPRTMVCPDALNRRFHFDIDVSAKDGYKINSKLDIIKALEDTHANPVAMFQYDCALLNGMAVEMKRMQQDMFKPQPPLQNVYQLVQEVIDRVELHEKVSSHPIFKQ

COc1cccc2c1NC(=O)C(Cl)(Cl)C2=O [Compound C5, 3,3-dichloro-8-methoxy-2,4(1H,3H)-quinolinedione]
inhibition type (FMDV 2C helicase): noncompetitive inhibition | CC50 (in vitro): 127 µM

COc1ccc2c(c1)cc1n2CCN2CCCN=C12 [Compound C4, 11-methoxy-3,4,6,7-tetrahydro-2H-pyrimido[2′,1′:3,4]pyrazino[1,2-a]indole]
suppression of FMDV RNA levels [1]: significantly outperformed 2-MPO | concentration achieving effective FMDV suppression [2]: 160 µM | inhibition rate (plaque assay) [2]: 99.7% | inhibition type (FMDV 2C helicase): mixed inhibition | antiviral activity by indirect immunofluorescence [3]: superior viral replication suppression | CC50 (in vitro): 284 µM

Cc1cccc[n+]1[O-] [Compound C1, 2-methylpyridine 1-oxide]
concentration achieving effective FMDV suppression [2]: 400 µM | reduction of viral plaque formation [2]: 90.2% | inhibition at 200 µM [2, 4]: 97.3% | inhibition at 400 µM [2, 4]: 99.8% | inhibition type (FMDV 2C helicase): mixed inhibition | antiviral activity by indirect immunofluorescence [3]: superior viral replication suppression | viability at 500 µM (in vitro): > 50%

Sc1cnn[nH]1 [Compound C2, 1H-1,2,3-triazole-5-thiolate]
inhibition type (FMDV 2C helicase): competitive inhibition | viability at 500 µM (in vitro): > 50% | CC50 (in vitro): 1330 µM

Cl.N=C(N)N [Guanidine hydrochloride]
effect on helicase and ATPase activities (picornaviral 2C): suppresses helicase and ATPase activities

O=C1C=CC2(C=C1)OC(=O)c1ccccc1O2 [Compound C6, Spiro (4H-[1,3]benzodioxine-2,4′-[2,5]cyclohexadiene)-1′,4-dione]
inhibition type (FMDV 2C helicase): noncompetitive inhibition | CC50 (in vitro): 3 µM

Oc1ccccn1 [Compound C3, pyridin-2-ol]
inhibition type (FMDV 2C helicase): competitive inhibition | viability at 500 µM (in vitro): > 50% | CC50 (in vitro): 852 µM
